The supplement of paper PMC9386025

Experiments:
Test in all cases: drug sensitivity score (DSS) (DSS (dimensionless)); higher = more sensitive (stronger drug response)
FIMM-PDC1 = patient-derived ovarian cancer cells; conditions: genetic perturbation: none (patient-derived cell culture)
Outline: (§1)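 Ovarian cancer cell lines, after at least three days of shRNA induction with 100 ng/ml doxycycline, and patient-derived cultures were plated at 1 000 – 1 500 cells per well into 384-well plates pre-loaded with drugs at five concentrations spanning a 10,000-fold range. Plates were then kept for three days at 37 °C and 5.0 % CO2. Viability was measured as CellTiter-Glo luminescence on a PHERAstar FS, and each drug's dose-response curve was reduced to a drug sensitivity score computed by a previously described method.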

FIMM-PDC3 = patient-derived ovarian cancer cells; conditions: genetic perturbation: none (patient-derived cell culture)
Outline: as §1

FIMM-PDC4 = patient-derived ovarian cancer cells; conditions: genetic perturbation: none (patient-derived cell culture)
Outline: as §1

FIMM-PDC5 = patient-derived ovarian cancer cells; conditions: genetic perturbation: none (patient-derived cell culture)
Outline: as §1

FIMM-PDC6 = patient-derived ovarian cancer cells; conditions: genetic perturbation: none (patient-derived cell culture)
Outline: as §1

FIMM-PDC7 = patient-derived ovarian cancer cells; conditions: genetic perturbation: none (patient-derived cell culture)
Outline: as §1

JHOS2 = test system: JHOS2
Outline: as §1

Kuramochi = test system: Kuramochi
Outline: as §1

OVSAHO = test system: OVSAHO
Outline: as §1

[1] = genetic perturbation: DOX-induced PTK7 shRNA knockdown
[2] = genetic perturbation: DOX-induced control shRNA

SMILES	drug sensitivity score (FIMM-PDC1)	drug sensitivity score (FIMM-PDC3)	drug sensitivity score (FIMM-PDC4)	drug sensitivity score (FIMM-PDC5)	drug sensitivity score (FIMM-PDC6)	drug sensitivity score (FIMM-PDC7)	drug sensitivity score (JHOS2; [1])	drug sensitivity score (JHOS2; [2])	drug sensitivity score (Kuramochi; [1])	drug sensitivity score (Kuramochi; [2])	drug sensitivity score (OVSAHO; [1])	drug sensitivity score (OVSAHO; [2])
CO[C@H](C(=O)[C@@H](O)[C@@H](C)O)[C@@H]1Cc2cc3cc(O[C@H]4C[C@@H](O[C@@H]5C[C@@H](O)[C@H](O)[C@@H](C)O5)[C@H](O)[C@@H](C)O4)c(C)c(O)c3c(O)c2C(=O)[C@H]1O[C@H]1C[C@@H](O[C@@H]2C[C@@H](O)[C@@H](O[C@@H]3C[C@](C)(O)[C@H](O)[C@@H](C)O3)[C@@H](C)O2)[C@H](O)[C@@H](C)O1 [Plicamycin]	15.6	4.3	12.6	15.3	< 0	< 0	3.7	20.1	3.45	12.6	3.5	14.6
C=CC(=O)N1CCC(Oc2cc3c(Nc4ccc(Cl)c(Cl)c4F)ncnc3cc2OC)CC1 [Poziotinib]	3.5	16.4	22.9	27.2	21.2	16.1	< 0	< 0	0.95	1.4	2.6	0.3
CCCCc1nc2cc(/C=C/C(=O)NO)ccc2n1CCN(CC)CC [Pracinostat]	10.8	13.2	7.3	14.8	13.7	11.1	13.4	11.9	18	7.9	14.2	11.2
COc1cccc(OCCCN)c1-c1cc(Nc2cnc(C#N)cn2)n[nH]1 [Prexasertib]	22.6	27.1	19.2	24.3	15.4	14.3	23.3	7.3	22.4	8.8	17.4	11.1
Cn1cc(CNCC2CCN(c3ncc(C(=O)NO)cn3)CC2)c2ccccc21 [Quisinostat]	11	16.5	5.1	14.6	11.8	8.6	10.9	12.5	17.4	6.5	13.6	12
Cc1nc(=O)c2cc(CN(C)c3ccc(C(=O)N[C@@H](CCC(=O)O)C(=O)O)s3)ccc2[nH]1 [Raltitrexed]	2.7	< 0	< 0	< 0	1.2	3	0.1	< 0	0.45	9.4	< 0	5.1
Cn1nccc1Nc1nccc(-c2ccn([C@H](CO)c3ccc(Cl)c(F)c3)c(=O)c2)n1 [Ravoxertinib]	1.2	2.2	7.9	9.2	6.6	2.6	1.5	3.6	3.45	< 0	< 0	2.4
CN(C)Cc1ccc(S(=O)(=O)n2ccc(/C=C/C(=O)NO)c2)cc1 [Resminostat]	6.7	8.7	4.2	10	8.8	7.2	7.8	7.1	9.8	4.8	9.3	6.9
CO[C@H]1C[C@@H]2CC[C@@H](C)[C@@](O)(O2)C(=O)C(=O)N2CCCC[C@H]2C(=O)O[C@H]([C@H](C)C[C@@H]2CC[C@@H](OP(C)(C)=O)[C@H](OC)C2)CC(=O)[C@H](C)/C=C(\C)[C@@H](O)[C@@H](OC)C(=O)[C@H](C)C[C@H](C)/C=C/C=C/C=C/1C [Ridaforolimus]	1.65	4.5	5	9.5	3.2	11.4	< 0	4.1	2.5	0.7	0.4	5.3
COc1cc(OC)c(/C=C/S(=O)(=O)Cc2ccc(OC)c(NCC(=O)O)c2)c(OC)c1 [Rigosertib]	13.2	19	23.6	20	15.1	10.6	18.3	13	17.9	6.4	19.1	9.2
C=CC(=O)Nc1cccc(Nc2nc(Nc3ccc(N4CCN(C(C)=O)CC4)cc3OC)ncc2C(F)(F)F)c1 [Rociletinib]	5.2	7.6	10	10.3	10.3	10.7	3.6	2.1	4.75	4.6	9.1	5.1
C/C=C1\NC(=O)[C@H]2CSSCC/C=C/[C@H](CC(=O)N[C@H](C(C)C)C(=O)N2)OC(=O)[C@H](C(C)C)NC1=O [Romidepsin]	26.2	29.6	25.6	26.9	31.1	27.2	24.3	24.1	30.7	21.6	28.1	25.4
CN(C)C[C@@H]1CCn2cc(c3ccccc32)C2=C(C(=O)NC2=O)c2cn(c3ccccc23)CCO1 [Ruboxistaurin]	6.85	8.5	7.8	11.1	6.8	8.1	6.2	6.5	7.25	7	9.8	6
CN1CCC(CNc2ccc3ncc(-c4cccc(OC(F)(F)F)c4)n3n2)CC1 [SGI-1776]	5.6	6	6.8	6.9	6.8	9.1	6.2	5.9	5.3	5.7	7.9	7.2
CN(CC(=O)N(Cc1ccc(C2CCCCC2)cc1)c1ccc(C(=O)O)cc1)S(=O)(=O)c1c(F)c(F)c(F)c(F)c1F [SH-4-54]	4	6	7	5.1	7.6	9.2	4.6	3.7	6.1	4.7	5.2	5.4
CCc1c2c(nc3ccc(O)cc13)-c1cc3c(c(=O)n1C2)COC(=O)[C@]3(O)CC [SN-38]	23.5	26.6	19.2	29.7	28.9	21.3	26.1	22.5	21	8.6	21	16.4

SMILES	drug sensitivity score (FIMM-PDC1)	drug sensitivity score (FIMM-PDC3)	drug sensitivity score (FIMM-PDC4)	drug sensitivity score (FIMM-PDC5)	drug sensitivity score (FIMM-PDC6)	drug sensitivity score (FIMM-PDC7)	drug sensitivity score (JHOS2; [1])	drug sensitivity score (JHOS2; [2])	drug sensitivity score (Kuramochi; [1])	drug sensitivity score (Kuramochi; [2])	drug sensitivity score (OVSAHO; [1])	drug sensitivity score (OVSAHO; [2])
CC(C)(C)c1cnc(CSc2cnc(NC(=O)C3CCNCC3)s2)o1 [SNS-032]	18.6	16.9	20	24.7	19.2	19.1	19.9	16.9	16.9	17.2	17.5	15.9
Cc1cc2c(C(=O)NC[C@H](C)c3ccccc3)c(O)c(O)cc2c(O)c1-c1c(C)cc2c(C(=O)NC[C@H](C)c3ccccc3)c(O)c(O)cc2c1O [Sabutoclax]	4.75	11.8	6.9	5.2	6.4	3.8	11.1	10.8	7.8	6.8	4.7	6.5
CC[C@@H](C(=O)[C@@H](C)[C@@H](O)[C@H](C)[C@@H]1O[C@@H]([C@@H](CC)C(=O)O)CC[C@@H]1C)[C@H]1O[C@]2(C=C[C@@H](O)[C@]3(CC[C@@](C)([C@H]4CC[C@](O)(CC)[C@H](C)O4)O3)O2)[C@H](C)C[C@@H]1C [Salinomycin]	11.6	18.8	16.8	18.4	8.1	14.7	24.2	15.5	19.4	21.6	29.2	4.8
CC(C)n1nc(-c2ccc3oc(N)nc3c2)c2c(N)ncnc21 [Sapanisertib]	7.5	7.6	15.4	21.2	16.3	16.3	6.9	9.3	10.1	10.7	14	11.6
CNC(=O)CN1CCC(Oc2cc3c(Nc4cccc(Cl)c4F)ncnc3cc2OC)CC1 [Sapitinib]	0.6	8.8	16.3	16.5	11.4	10.1	< 0	< 0	0.5	< 0	< 0	< 0
CN1CCN(CCOc2cc(OC3CCOCC3)c3c(Nc4c(Cl)ccc5c4OCO5)ncnc3c2)CC1 [Saracatinib]	4.6	12	13.7	15.2	9.4	5.8	1.4	7.3	10.6	5.2	12.4	6.6
O=C(/C=C\n1cnc(-c2cc(C(F)(F)F)cc(C(F)(F)F)c2)n1)NNc1cnccn1 [Selinexor]	12.4	22.4	17.1	20.1	24.4	19.5	18.8	14.5	9.85	13.5	14.8	7.4
Cn1cnc2c(F)c(Nc3ccc(Br)cc3Cl)c(C(=O)NOCCO)cc21 [Selumetinib]	< 0	4.9	10	11.4	7.6	10.3	0.7	8.6	7.5	2	13.5	1.7
Nc1nc2cc(-c3ccc4ncc(C(=O)N5CCOCC5)n4c3)ccc2o1 [Serabelisib]	0.6	0.6	4.1	5.2	3.1	9.1	0.9	0.2	< 0	< 0	0.8	< 0
O=C(O)c1ccc2c(c1)nc(Nc1cccc(Cl)c1)c1ccncc12 [Silmitasertib]	3.2	4.8	1.5	6.6	< 0	2.8	3.3	3.6	5.55	4.5	5.5	5.8
CCS(=O)(=O)c1cccc(-c2cc(C(=O)NC3CCN(C)CC3)c(C)c3[nH]c4ncc(C)cc4c23)c1 [TAK-901]	4.85	4.3	7.9	6.5	7.3	3	3.2	5.3	7.3	6.4	8.3	5.7
COc1cc(Nc2ncc(F)c(Nc3ccc4c(n3)NC(=O)C(C)(C)O4)n2)cc(OC)c1OC [Tamatinib]	< 0	3.8	6.4	12.9	1.6	8.6	4.2	0.1	2.9	1.1	7	1.1
Cc1nc(-c2cn3c(n2)-c2ccc(-c4cnn(C(C)(C)C(N)=O)c4)cc2OCC3)n(C(C)C)n1 [Taselisib]	4.2	6.7	9.5	11.6	6.3	12.3	4.3	2.4	4.5	1.1	3.1	4.7
CO[C@H]1C[C@@H]2CC[C@@H](C)[C@@](O)(O2)C(=O)C(=O)N2CCCC[C@H]2C(=O)O[C@H]([C@H](C)C[C@@H]2CC[C@@H](OC(=O)C(C)(CO)CO)[C@H](OC)C2)CC(=O)[C@H](C)/C=C(\C)[C@@H](O)[C@@H](OC)C(=O)[C@H](C)C[C@H](C)/C=C/C=C/C=C/1C [Temsirolimus]	2.25	2.8	8.7	12.2	5.7	4	< 0	7.2	4.5	2.7	2.3	6.6
COc1cc2c(Nc3ccc(Cl)c(Cl)c3F)ncnc2cc1OC[C@@H]1C[C@@H]2CN(C)C[C@@H]2C1 [Tesevatinib]	2.25	13.6	19.2	23.9	16.4	11.5	< 0	3.1	1.35	1	0.5	1.9
